Experiments:
[1] = molecular target: T1, B1R receptor of the rat (CHO K1 cells stably transfected with the B1R gene of the rat) (Rattus norvegicus, UniProt P97583); assay: Functional study on the bradykinin receptor 1 (B1R), Ca2+ fluorescence (Fluo-4) FLIPR/Novostar assay, rB1R cells; format: cell-based; details: CHO-K1, 10 μM, read-out: % inhibition (rat B1R) at 10 μM
T1 construct: expressed in transfected cells; host or cells: CHO K1 cells (Chinese hamster ovary), stably transfected
T1 sequence (P97583 1-337): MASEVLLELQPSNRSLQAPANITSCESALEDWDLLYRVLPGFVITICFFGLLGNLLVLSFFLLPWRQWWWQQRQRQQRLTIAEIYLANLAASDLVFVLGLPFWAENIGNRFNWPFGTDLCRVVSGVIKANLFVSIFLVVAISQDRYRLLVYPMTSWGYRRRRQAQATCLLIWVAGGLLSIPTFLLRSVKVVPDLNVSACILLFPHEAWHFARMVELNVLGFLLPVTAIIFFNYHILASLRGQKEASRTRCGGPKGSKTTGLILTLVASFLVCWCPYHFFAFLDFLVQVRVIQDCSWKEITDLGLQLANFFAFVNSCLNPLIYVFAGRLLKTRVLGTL
Method in brief: (§1)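 Ca2+ influx (Fluo-4, peak fluorescence, λex 488/λem 540 nm) was measured in CHO K1 lines expressing rat or human B1R. After a 10 μM test-compound pre-addition scoring % activation, cells received EC80 agonist: Des-Arg9-bradykinin for rat, Lys-Des-Arg9-bradykinin for human. Antagonism was expressed as % of maximum inhibition, with IC50 from varied concentrations.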

[2] = molecular target: T2, human B1R receptor (CHO K1 cells stably transfected with the human B1R gene) (Homo sapiens, UniProt P46663); assay: Functional study on the bradykinin receptor 1 (B1R), Ca2+ fluorescence (Fluo-4) FLIPR/Novostar assay, hB1R cells; format: cell-based; details: CHO-K1, read-out: % inhibition (human B1R) at 10 μM
T2 construct: expressed in transfected cells; host or cells: CHO K1 cells (Chinese hamster ovary), stably transfected
T2 sequence (P46663 1-353): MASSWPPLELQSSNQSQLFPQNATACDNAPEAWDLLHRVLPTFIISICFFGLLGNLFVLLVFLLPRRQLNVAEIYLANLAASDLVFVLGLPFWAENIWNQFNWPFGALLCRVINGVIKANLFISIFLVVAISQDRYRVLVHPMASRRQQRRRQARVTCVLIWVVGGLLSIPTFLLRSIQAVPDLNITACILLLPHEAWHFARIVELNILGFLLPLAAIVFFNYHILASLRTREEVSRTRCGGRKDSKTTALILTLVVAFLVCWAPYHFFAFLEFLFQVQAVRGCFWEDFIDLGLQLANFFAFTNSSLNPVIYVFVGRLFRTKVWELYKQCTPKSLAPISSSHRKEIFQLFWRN
Method in brief: as §1

| Compound | inhibition at 10 µM [1] | inhibition at 10 µM [2] |
| --- | --- | --- |
| Cc1cc(N2CCC(N(C)C(=O)c3ccc4c(c3)[C@H](N(C(=O)c3ccccc3Cl)C(C)C)CC4)CC2)nc(C)n1 [Example H-144, (3R)-3-[(2-Chloro-benzoyl)-isopropyl-amino]-N-[1-(2,6-dimethyl-pyrimidin-4-yl)-piperidin-4-yl]-N-methyl-2,3-dihydro-1H-indene-5-carboxylic acid amide] | 77% | 91% |
| CCN(C(=O)c1ccccc1Cl)[C@@H]1CCc2ccc(C(=O)N(C)C3CCN(c4cc(C)nc(C)n4)CC3)cc21 [Example H-145, (3R)-3-[(2-Chloro-benzoyl)-ethyl-amino]-N-[1-(2,6-dimethyl-pyrimidin-4-yl)-piperidin-4-yl]-N-methyl-2,3-dihydro-1H-indene-5-carboxylic acid amide] | 106% | 100% |
| CN(C(=O)c1ccc2c(c1)[C@H](NC(=O)c1ccccc1Cl)CC2)C1CN(c2ccncc2)C1 [Example H-146, (3R)-3-[(2-Chloro-benzoyl)amino]-N-methyl-N-(1-pyridin-4-yl-azetidin-3-yl)-2,3-dihydro-1H-indene-5-carboxylic acid amide] | 107% | -1% |
| CN(C(=O)c1ccc2c(c1)[C@H](NC(=O)c1ccccc1Cl)CC2)C1CCN(c2ccncn2)CC1 [Example H-147, (3R)-3-[(2-Chloro-benzoyl)amino]-N-methyl-N-(1-pyrimidin-4-yl-piperidin-4-yl)-2,3-dihydro-1H-indene-5-carboxylic acid amide] | 107% | 99% |
| CN(C(=O)c1ccc2c(c1)[C@H](N(C)C(=O)c1ccccc1Cl)CC2)C1CCN(c2ccncn2)CC1 [Example H-148, (3R)-3-[(2-Chloro-benzoyl)-methyl-amino]-N-methyl-N-(1-pyrimidin-4-yl-piperidin-4-yl)-2,3-dihydro-1H-indene-5-carboxylic acid amide] | 99% | 89% |
| Cc1cc(N2CCC(N(C)C(=O)c3ccc4c(c3)[C@H](N(C)C(=O)c3ccccc3Cl)CC4)CC2)nc(C)n1 [Example H-149, (3R)-3-[(2-Chloro-benzoyl)-methyl-amino]-N-[1-(2,6-dimethyl-pyrimidin-4-yl)-piperidin-4-yl]-N-methyl-2,3-dihydro-1H-indene-5-carboxylic acid amide] | 101% | 100% |
| CC(C)N(C(=O)c1ccccc1Cl)[C@@H]1CCc2ccc(C(=O)N(C)C3CCN(c4ccncc4)CC3)cc21 [Example H-150, (3R)-3-[(2-Chloro-benzoyl)-isopropyl-amino]-N-methyl-N-(1-pyridin-4-yl-piperidin-4-yl)-2,3-dihydro-1H-indene-5-carboxylic acid amide] | 98% | 89% |
| Cc1cc(N2CCC(N(C)C(=O)c3cc4c(cc3F)[C@H](NC(=O)c3ccccc3Cl)CC4)CC2)nc(C)n1 [Example H-151, (1R)-1-[(2-Chloro-benzoyl)amino]-N-[1-(2,6-dimethyl-pyrimidin-4-yl)-piperidin-4-yl]-6-fluoro-N-methyl-2,3-dihydro-1H-indene-5-carboxylic acid amide] | 96% | 100% |
| Cc1cc(N2CCC(N(C)C(=O)c3cc4c(cc3F)[C@H](NC(=O)c3ccccc3Cl)CC4)CC2)ncn1 [Example H-152, (1R)-1-[(2-Chloro-benzoyl)amino]-6-fluoro-N-methyl-N-[1-(6-methyl-pyrimidin-4-yl)-piperidin-4-yl]-2,3-dihydro-1H-indene-5-carboxylic acid amide] | 93% | 82% |
| CN(C(=O)c1ccc2c(c1)[C@H](N(C)C(=O)c1ccccc1Cl)CC2)C1CCN(c2ccncc2)CC1 [Example H-153, (3R)-3-[(2-Chloro-benzoyl)-methyl-amino]-N-methyl-N-(1-pyridin-4-yl-piperidin-4-yl)-2,3-dihydro-1H-indene-5-carboxylic acid amide] | 101% | 100% |

Other lines, results leading:

| inhibition at 10 µM [1] | inhibition at 10 µM [2] | Compound |
| --- | --- | --- |
| 104% | 62% | CC(C)N(C(=O)c1ccccc1Cl)[C@@H]1CCc2cc(F)c(C(=O)N(C)C3CCN(c4ccncc4)CC3)cc21 [Example H-155, (3R)-3-[(2-Chloro-benzoyl)-isopropyl-amino]-6-fluoro-N-methyl-N-(1-pyridin-4-yl-piperidin-4-yl)-2,3-dihydro-1H-indene-5-carboxylic acid amide] |
| 101% | 90% | CCN(C(=O)c1ccc2c(c1)[C@H](NC(=O)c1ccccc1Cl)CC2)C1CCN(c2ncnc3nc[nH]c23)CC1 [Example H-156, (3R)-3-[(2-Chloro-benzoyl)amino]-N-ethyl-N-[1-(7H-purin-6-yl)-piperidin-4-yl]-2,3-dihydro-1H-indene-5-carboxylic acid amide] |
| 61% | 23% | CC(C)N(C(=O)c1ccccc1Cl)[C@@H]1CCc2cc(C(=O)N(C)C3CCN(c4ccncc4)CC3)c(F)cc21 [Example H-158, (1R)-1-[(2-Chloro-benzoyl)isopropyl-amino]-6-fluoro-N-methyl-N-(1-pyridin-4-yl-piperidin-4-yl)-2,3-dihydro-1H-indene-5-carboxylic acid amide] |
| 109% | 100% | Cc1cc(N2CC(N(C)C(=O)c3ccc4c(c3)[C@H](NC(=O)c3ccccc3Cl)CC4)C2)ccn1 [Example H-160, (3R)-3-[(2-Chloro-benzoyl)amino]-N-methyl-N-[1-(2-methyl-pyridin-4-yl)-azetidin-3-yl]-2,3-dihydro-1H-indene-5-carboxylic acid amide] |
| 111% | 99% | Cc1cc(N2CC(N(C)C(=O)c3ccc4c(c3)[C@H](N3Cc5cccc(Cl)c5C3=O)CC4)C2)ccn1 [Example H-161, (3R)-3-(4-Chloro-3-oxo-1,2-dihydro-isoindol-2-yl)-N-methyl-N-[1-(2-methyl-pyridin-4-yl)-azetidin-3-yl]-2,3-dihydro-1H-indene-5-carboxylic acid amide] |
| 105% | 100% | Cc1cc(N2CCC(N(C)C(=O)c3ccc4c(c3)[C@H](NC(=O)c3ccccc3C)CC4)CC2)nc(C)n1 [Example H-162, (3R)-N-[1-(2,6-Dimethyl-pyrimidin-4-yl)-piperidin-4-yl]-N-methyl-3-[(2-methyl-benzoyl)amino]-2,3-dihydro-1H-indene-5-carboxylic acid amide] |
| 104% | 99% | Cc1cc(N2CCC(N(C)C(=O)c3ccc4c(c3)[C@H](NC(=O)c3c(F)cccc3Cl)CC4)CC2)nc(C)n1 [Example H-163, (3R)-3-[(2-Chloro-6-fluoro-benzoyl)amino]-N-[1-(2,6-dimethyl-pyrimidin-4-yl)-piperidin-4-yl]-N-methyl-2,3-dihydro-1H-indene-5-carboxylic acid amide] |
| 105% | 100% | CN(C(=O)c1ccc2c(c1)[C@H](NC(=O)c1cccc(F)c1Cl)CC2)C1CCN(c2ccncn2)CC1 [Example H-164, (3R)-3-[(2-Chloro-3-fluoro-benzoyl)amino]-N-methyl-N-(1-pyrimidin-4-yl-piperidin-4-yl)-2,3-dihydro-1H-indene-5-carboxylic acid amide] |

— patent US8680159B2, “Bradykinin 1 receptor modulating compounds” (Gruenenthal GmbH, priority 2010, dated 2014)
